Experimental data taken from patent US20220380347A1, “INHIBITORS OF CYSTEINE PROTEASES AND METHODS OF USE THEREOF” (Pardes Biosciences, Inc., priority 2020, published 2022).
Like-named read-outs stand apart in the source and are kept apart here.

Legend:
229E Mpro = 229E Mpro (Human coronavirus 229E, UniProt P0C6X1); assay: 229E Mpro enzymatic assay (standard methods, SARS-CoV2 Mpro assay given as exemplary); type: biochemical, human coronavirus (HCov) 229E
Outline: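 IC50 for 229E Mpro by standard methods; exemplary SARS-CoV-2 protocol used C-His6-tagged Mpro from E. coli, 25 nM enzyme, 25 μM substrate (Km 13.5 μM), in Tris-HCl pH 7.3, NaCl, EDTA, TCEP, 0.1% BSA. Inhibition normalised to no-compound and full-effect controls; four-parameter fit.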

[1] = target: COVID-19 (nCoV-2019, SARS-CoV2) Mpro (Severe acute respiratory syndrome coronavirus 2, UniProt P0DTD1); assay: COVID-19 (nCoV-2019, SARS-CoV2) Mpro enzymatic assay; type: biochemical; conditions: 25 nM Mpro, 25 μM substrate; read-out: COVID-19 Mpro IC50
HCoV 229E = HCoV 229E cytopathic effect (CPE) assay, CellTiter Glo; type: cell-based, human coronavirus (HCov) 229E; conditions: protection of virus-induced CPE
Method: Example 238: Evaluation of antiviral activity of compounds against human coronavirus (HCov) 229E and OC43 in the cytopathic effect (CPE) assays
Compounds were assayed using standard methods against multiple coronaviral strains, including HCoV 229E and OC43 strains. The antiviral activity of compounds was calculated based on the protection of the virus-induced CPE at each concentration normalized by the virus control.
Cytopathic effect (CPE) was measured by CellTiter Glo following the manufacturer's manual. The antiviral activity of compounds was calculated based on the protection of the virus-induced CPE at each concentration normalized by the virus control.
Cell viability was measured with CellTiter Glo.

[2] = Cytotoxicity in parallel to the 229E CPE assay, without virus infection, CellTiter Glo; conditions: 229E CC50, without virus infection
Method: Reagents and instruments used in this assay include luminescent cell viability assay kit CellTiter Glo (Promega) and Microplate Reader Synergy2 (BioTek).
The cytotoxicity of compounds was assessed under the same conditions, but without virus infection, in parallel. Cell viability was measured with CellTiter Glo. The antiviral activity and cytotoxicity of compounds were expressed as % Inhibition and % Viability, respectively, and calculated with formulas.

HCov OC43 = assay: HCoV OC43 cytopathic effect (CPE) assay, CellTiter Glo; type: cell-based, human coronavirus (HCov) OC43
[3] = Betacoronavirus 1, OC43, read-out: OC43 IC50 (uM) MEDIAN, median
[4] = read-out: OC43 IC50 (uM) MEDIAN, median

229E Mpro, sequence (P0C6X1 2966-3267): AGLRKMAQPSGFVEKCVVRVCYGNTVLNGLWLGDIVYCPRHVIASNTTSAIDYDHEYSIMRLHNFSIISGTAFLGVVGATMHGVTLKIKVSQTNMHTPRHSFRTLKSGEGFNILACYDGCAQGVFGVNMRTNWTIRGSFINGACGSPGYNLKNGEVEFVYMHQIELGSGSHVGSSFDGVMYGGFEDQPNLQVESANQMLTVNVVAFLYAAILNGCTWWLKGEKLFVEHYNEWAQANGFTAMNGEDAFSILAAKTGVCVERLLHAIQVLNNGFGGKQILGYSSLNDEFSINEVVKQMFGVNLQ

| Compound | EC50 (229E Mpro; 229E Mpro EC50) [nM] | IC50 [1] [nM] | EC50 (HCoV 229E; unidentified human coronavirus) [nM] | CC50 [2] [nM] | EC50 (229E Mpro; read-out: 229E Mpro EC50) [nM] | IC50 (HCov OC43; [3]) [µM] | EC50 (HCoV 229E) [nM] | IC50 (HCov OC43; [4]) [µM] | IC50 (HCov OC43; read-out: OC43 IC50 (uM) MEDIAN, median, listed as 876 Isomer 1) [µM] | IC50 (HCov OC43; read-out: OC43 IC50 (uM) MEDIAN, median, listed as 284 Isomer 2) [µM] |
| --- | --- | --- | --- | --- | --- | --- | --- | --- | --- | --- |
| CC(C)(C)c1ccc(N(C(=O)c2nsnc2Cl)C(C(=O)NC2CCCCC2)c2cccnc2)cc1 (stereo not shown) [Compound 123, N-(4-(tert-butyl)phenyl)-4-chloro-N-(2-(cyclohexylamino)-2-oxo-1-(pyridin-3-yl)ethyl)-1,2,5-thiadiazole-3-carboxamide] | < 2000 | < 2000 | < 2000 | > 30000 |  |  |  |  |  |  |
| CN1CCN(C#N)C(C(=O)N(c2ccc(C(C)(C)C)cc2)C(C(=O)NC2CCCCC2)c2cccnc2)C1 (single isomer, unassigned) [Compound 217 Isomer 2, N-(4-tert-butylphenyl)-1-cyano-N-[2-(cyclohexylamino)-2-oxo-1-(3-pyridyl)ethyl]-4-methyl-piperazine-2-carboxamide] | < 2000 | < 2000 | < 2000 | > 30000 |  |  |  |  |  |  |
| CC(C)(C)c1ccc(N(C(=O)c2cnc[nH]2)C(C(=O)NC2CCCCC2)c2cccnc2)c(C#N)n1 (stereo not shown) [Compound 117] | 2000 to 10000 | > 30000 | 2000 to 10000 | > 30000 |  |  |  |  |  |  |
| CC(C)(C)c1ccc(N(C(=O)c2nccnc2C#N)C(C(=O)NC2CCCCC2)c2cccnc2)cc1 (stereo not shown) [Compound 124, N-(4-(tert-butyl)phenyl)-3-cyano-N-(2-(cyclohexylamino)-2-oxo-1-(pyridin-3-yl)ethyl)pyrazine-2-carboxamide] | 10000 to 30000 | > 30000 | 10000 to 30000 | > 30000 |  |  |  |  |  |  |
| CC(C)(C)c1ccc(N(C(=O)[C@H]2C[C@@H](O)CN2C#N)C(C(=O)NC2CCCCC2)c2cccnc2)cc1 (single isomer, unassigned) [Compound 254 Isomer 2] |  | < 2000 |  | > 30000 | < 2000 | < 2 |  |  |  |  |
| CC(C)(C)c1ccc(N(C(=O)c2c[nH]cn2)C(C(=O)NC2CCCCC2)c2cccnc2C#N)cc1 (stereo not shown) [Compound 100, N-(4-tert-butylphenyl)-N-[1-(2-cyano-3-pyridyl)-2-(cyclohexylamino)-2-oxo-ethyl]-1H-imidazole-5-carboxamide] | 2000 to 10000 | 10000 to 30000 | 2000 to 10000 | > 30000 |  |  |  |  |  |  |
| CC(C)(C)c1ccc(C(C(=O)c2cnc[nH]2)C(C(=O)NC2CCCCC2)c2nccnc2C#N)cc1 (stereo not shown) [Compound 105] | 10000 to 30000 | > 30000 | 2000 to 10000 | > 30000 |  |  |  |  |  |  |
| Cc1nnsc1C(C(=O)NC1CCCCC1)N(C(=O)c1cnc[nH]1)c1ccc(C(C)(C)C)cc1 (stereo not shown) [Compound 109] | 2000 to 10000 | > 30000 | 2000 to 10000 | > 30000 |  |  |  |  |  |  |
| N#CN1C[C@H](O)C[C@@H]1C(=O)N(c1ccc2c(c1)NCCC2)C(C(=O)NC1CCCCC1)c1cccnc1 (single isomer, unassigned) [Compound 755 Isomer 1] | < 2000 | < 2000 | < 2000 |  |  | < 2 |  |  |  |  |
| N#CN1C[C@H](O)C[C@@H]1C(=O)N(c1ccc(C2CC2)cc1)C(C(=O)NC1CCCCC1)c1cccnc1 (single isomer, unassigned) [723 Isomer 1] | < 2000 | < 2000 | < 2000 |  |  | < 2 |  |  |  |  |
| CC(C)(C)c1ccc(N(C(=O)[C@H]2C[C@@H](O)CN2C#N)C(C(=O)NC2CCCCC2)c2c[nH]nn2)cc1 (stereo partly drawn) [Compound 663, (2R,4R)—N-(4-(tert-butyl)phenyl)-1-cyano-N-(2-(cyclohexylamino)-2-oxo-1-(1H-1,2,3-triazol-4-yl)ethyl)-4-hydroxypyrrolidine-2-carboxamide] | < 2000 | 2000 to 10000 | < 2000 |  |  | 2 to 10 |  |  |  |  |
| CC(C)(C)c1ccc(N(C(=O)[C@H]2C[C@@H](F)CN2C#N)C(C(=O)NC2CCCCC2)c2cccnc2)cc1 (single isomer, unassigned) [Compound 870 Isomer 2] |  | 2000 to 10000 |  |  | < 2000 |  | 2000 to 10000 | < 2 |  |  |
| CC(C)(C)c1ccc(N(C(=O)[C@H]2C[C@@H](O)CN2C#N)C(C(=O)NC2CCOCC2)c2cccnc2)cc1 (single isomer, unassigned) [619 Isomer 2] |  | 2000 to 10000 |  |  | < 2000 |  | < 2000 | 2 to 10 |  |  |
| CN1CCN(C(=O)C(c2cccnc2)N(C(=O)[C@H]2CCCN2C#N)c2ccc(C(C)(C)C)cc2)CC1=O (stereo partly shown) [Compound 969] | < 2000 | < 2000 | 2000 to 10000 |  |  | 2 to 10 |  |  |  |  |
| Cc1nc2ccc(N(C(=O)[C@H]3C[C@@H](O)CN3C#N)C(C(=O)NC3CCCCC3)c3cccnc3)cc2[nH]1 (stereo partly drawn) [Compound 759, (2R,4R)-1-cyano-N-(2-(cyclohexylamino)-2-oxo-1-(pyridin-3-yl)ethyl)-4-hydroxy-N-(2-methyl-1H-benzo[d]imidazol-6-yl)pyrrolidine-2-carboxamide] | > 30000 | > 30000 | < 2000 |  |  | > 30 |  |  |  |  |
| CC(C)(C)c1ccc(N(C(=O)[C@H]2CC(F)(F)CN2C#N)C(C(=O)NC2CCCCC2)c2cccnc2)cc1 (single isomer, unassigned) [Compound 876 Isomer 1] | < 2000 | 2000 to 10000 | < 2000 |  |  |  |  |  | 10 to 30 |  |
| CC(C)(C)c1ccc(N(C(=O)[C@H]2C[C@@H](O)CN2C#N)C(C(=O)NC2CCOCC2)c2cccnc2)cc1 (single isomer, unassigned) [619 Isomer 1] | < 2000 | < 2000 | 2000 to 10000 |  |  | < 2 |  |  |  |  |
| N#CN1C[C@H](O)C[C@@H]1C(=O)N(c1ccc(C2CC2)cc1)C(C(=O)NC1CCCCC1)c1cccnc1 (single isomer, unassigned) [723 Isomer 2] | 2000 to 10000 | 10000 to 30000 |  |  |  |  | 2000 to 10000 | 2 to 10 |  |  |
| Cn1cnnc1C(C(=O)NC1CCCCC1)N(C(=O)[C@H]1C[C@@H](O)CN1C#N)c1ccc(C(C)(C)C)cc1 (single isomer, unassigned) [659 Isomer 2] |  | 2000 to 10000 |  |  | < 2000 |  | 2000 to 10000 | 2 to 10 |  |  |
| N#CN1C[C@H](O)C[C@@H]1C(=O)N(c1ccc(C(F)(C(F)(F)F)C(F)(F)F)cc1)C(C(=O)NC1CCCCC1)c1cccnc1 (single isomer, unassigned) [Compound 779 Isomer 1] | < 2000 | < 2000 | 2000 to 10000 |  |  | < 2 |  |  |  |  |
| COCCNC(=O)C(c1cccnc1)N(C(=O)[C@H]1C[C@@H](O)CN1C#N)c1ccc(C(C)(C)C)cc1 (single isomer, unassigned) [627 Isomer 1] | < 2000 | < 2000 | 2000 to 10000 |  |  |  |  | < 2 |  |  |
| CC(C)(C)c1ccc(N(C(=O)[C@H]2C[C@@H](O)CN2C#N)C(C(=O)NCCN2CCOCC2)c2cccnc2)cc1 (single isomer, unassigned) [587 Isomer 2] |  | 2000 to 10000 |  |  | < 2000 |  | 2000 to 10000 | 2 to 10 |  |  |
| CC(C)(C)c1ccc(N(C(=O)[C@H]2CCCN2C#N)C(C(=O)N2CC(F)C2)c2cccnc2)cc1 (stereo partly drawn) [Compound 952, (2R)—N-(4-(tert-butyl)phenyl)-1-cyano-N-(2-(3-fluoroazetidin-1-yl)-2-oxo-1-(pyridin-3-yl)ethyl)pyrrolidine-2-carboxamide] | < 2000 | 2000 to 10000 | 2000 to 10000 |  |  | 2 to 10 |  |  |  |  |
| CO[C@@H]1C[C@H](C(=O)N(c2ccc(C(C)(C)C)cc2)C(C(=O)NC2CCCCC2)c2cccnc2)N(C#N)C1 (single isomer, unassigned) [Compound 292 Isomer 2] |  | < 2000 | < 2000 |  | < 2000 |  |  | < 2 |  |  |
| CN1CCN(C(=O)C(c2cccnc2)N(C(=O)[C@H]2CCCN2C#N)c2ccc(C(C)(C)C)cc2)CC1 (mixture of isomers) [Compound 967, (2R)—N-(4-(tert-butyl)phenyl)-1-cyano-N-(2-(4-methylpiperazin-1-yl)-2-oxo-1-(pyridin-3-yl)ethyl)pyrrolidine-2-carboxamide] | < 2000 | 2000 to 10000 | 2000 to 10000 |  |  | 2 to 10 |  |  |  |  |
| CC(C)(C)c1ccc(N(C(=O)[C@H]2C[C@H](Oc3ccccc3)CN2C#N)C(C(=O)NC2CCCCC2)c2cccnc2)cc1 (single isomer, unassigned) [Compound 308 Isomer 2] | < 2000 | < 2000 | < 2000 |  |  |  |  | > 30 |  |  |
| C[C@@]1(O)C[C@H](C(=O)N(c2ccc(S(F)(F)(F)(F)F)cc2)C(C(=O)NC2CCC(F)(F)CC2)c2cccnc2)N(C#N)C1 (single isomer, unassigned) [Compound 1156 Isomer 2] |  | < 2000 |  |  | < 2000 |  | 2000 to 10000 | < 2 |  |  |
| CC1(O)C[C@H](C(=O)N(c2ccc(C(C)(C)C)cc2)C(C(=O)NC2CCCCC2)c2cccnc2)N(C#N)C1 (single isomer, unassigned) [Compound 284 Isomer 2] | < 2000 | < 2000 | < 2000 |  |  |  |  |  |  | < 2 |
